According to US20250042918A1, “COMPOUNDS” (Fundación Del Sector Públlco Estatal Centro Nacional De …, priority 2021, published 2025):

Tests used:
[1] = system: BAD S112 phosphorylation in H1299 cells overexpressing PIM-1 (H1299Pim1); test: BAD S112 phosphorylation inhibition assay (in Cell ELISA); format: cell-based; settings: Homo sapiens, NCI-H1299, 4 hours, medium without FBS, read-out: BAD PH 1299PIM 1 ELIWO
Protocol: The efficacy of the compounds of the invention on the inhibition of BAD phosphorylation was measured by an in Cell ELISA.
Materials: H1299 cells overexpressing PIM-1 (H1299Pim1). DMSO Plates: 96-well-Polystyrene, Untreated, Round-Bottom plates from Costar (Cat #3797). Cell Plates: 96-Flat bottom biocoated with Poly-D-Lysin plates with lid from Becton Dickinson (Cat #354651). Cell Culture Medium: DMEM high glucose, 10% Fetal Bovine Serum, 2 mM L-Glutamine, P/S. Antibodies: phospho BAD S112 antibody from Cell Signaling (cat. #9291S), anti-rabbit conjugated with peroxidase from Amersham (cat. #3619). Reagent: SuperSignal ELISA femto from Pierce (cat. #1001110).
Procedure: Cells were seeded in 15000 cells per 200 μl per well into 96-well plates and incubated for 16 h at 37° C., 5% CO2. On day two, nine serial 1:2 compound dilutions were made in DMSO in a 96-well plate. The compounds were added to duplicate wells in 96-well cell plates using a FX BECKMAN robot (Beckman Coulter) and were incubated at 37° C. under CO2 atmosphere in medium without fetal bovine serum (FBS). After 4 hours, relative levels of BAD S112 phosphorylation were measured in Cell ELISA using SuperSignal ELISA Femto substrate (Pierce) and read on VICTOR (Perkin Elmer). EC50 values were calculated using ActivityBase from IDBS.

PIM-3 = molecular target: T1, PIM-3 (Homo sapiens, UniProt Q86V86); test: Protein PIM kinase assay (ADP Hunter Plus); format: biochemical; settings: 100 μM ATP, 100 μM PIMtide
T1 construct: purchased Millipore 14-738
Protocol: (§1) PIM kinase activities were measured by using the commercial ADP Hunter™ Plus assay (DiscoveRx Ref. #33-016), a homogeneous assay measuring ADP accumulation, as a universal product of kinase activity. PIM-1 and PIM-2 proteins were obtained by purification as it is described by Martinez-Gonzalez et. al. Eur. J. Med Chem. 2019, 168, 87-109 and PIM-3 was acquired from Millipore (Cat #14-738). The assay was done following general manufacturer recommendations and adapting protein and substrates concentrations to optimal conditions. Kinase buffer was 15 mM HEPES, pH 7.4, 20 mM NaCl, 1 mM EGTA, 0.02% Tween-20, 10 mM MgCl2 and 0.1 mg/mL LBGG (bovine y-globulin). All PIM kinases assays were done at 100 μM PIM tide (ARKRRRHPSGPPTA), as peptide substrate, and 100 μM ATP. Protein concentration was 50, 350 and 200 pg/μl for PIM-1, 2 and 3, respectively. In order to calculate the IC50 of described compounds, serial 1:3 dilutions were prepared and the reaction started by addition of ATP. Incubation was done for 1 h at 25° C. Reagents A and B (DiscoveRx) were sequentially added to the wells and plates were incubated for 30 min at 37° C. Fluorescence counts were read in a Victor instrument (Perkin Elmer) with the recommended settings (544 and 580 nm as excitation and emission wavelengths, respectively). Values were plot against inhibitor concentration and fit to a sigmoid dose-response curve using Activity Base software from IDBS.

PIM-1 = molecular target: T2, PIM-1 (Homo sapiens, UniProt P11309); test: Protein PIM kinase assay (ADP Hunter Plus); format: biochemical; settings: 100 μM ATP, 100 μM PIMtide
T2 construct: made in house
Protocol: as §1

PIM-2 = molecular target: T3, PIM-2 (Homo sapiens, UniProt Q9P1W9); test: Protein PIM kinase assay (ADP Hunter Plus); format: biochemical; settings: 100 μM ATP, 100 μM PIMtide
T3 construct: made in house
Protocol: as §1

DU145 = test: Combination antiproliferation with Example 1; format: cell-based; set-up: key to Synergy: ++++ indicates a very strong synergistic effect; +++ a strong synergistic effect; ++ a synergistic effect; settings: agent in combination with Example 1, DU145, Prostate Cancer
Protocol: (§2) The cells were harvested just before reaching confluency, counted with a haemocytometer and diluted with media. Cells were then seeded in 96-well microtiter plates at a density of 4,000 cells/well. […] Compounds were weighed out and diluted with DMSO to a final concentration of 10 mM. From here a “mother plate” with serial dilutions was prepared at 200× the final concentration in the culture. The final concentration of DMSO in the tissue culture media should not exceed 0.5%. The appropriate volume of the compound solution (2 μl) was added automatically (Beckman FX 96 tip) to 0.2 ml media to make it up to the final concentration for each drug. Each concentration was assayed in duplicate. Cells were exposed to the compounds for 72 h and then processed for CellTiter-Glo® Luminescent Cell Viability Assay (Promega) read out according to manufacturer's Instruction and read on EnVision (Perkin Elmer). GI50 values were calculated using ActivityBase from IDBS. […] A combination index score was calculated by the Chou and Talalay method (CalcuSyn software, Biosoft). The combination partner compounds were as follows: • the PI3K inhibitor pictisilib (GDC-0941); • the MEK inhibitor merdametinib (PD-0325901); and the EGFR and ErbB2 inhibitor lapatinib

A549 = test: Combination antiproliferation with Example 1; format: cell-based; set-up: key to Synergy: ++++ indicates a very strong synergistic effect; +++ a strong synergistic effect; ++ a synergistic effect; settings: agent in combination with Example 1, A549, Lung Cancer
Protocol: (§3) The cells were harvested just before reaching confluency, counted with a haemocytometer and diluted with media. Cells were then seeded in 96-well microtiter plates at a density of 4,000 cells/well. Cells were incubated for 24 hours before adding the compounds.
(§4) Compounds were weighed out and diluted with DMSO to a final concentration of 10 mM. From here a “mother plate” with serial dilutions was prepared at 200× the final concentration in the culture. The final concentration of DMSO in the tissue culture media should not exceed 0.5%. The appropriate volume of the compound solution (2 μl) was added automatically (Beckman FX 96 tip) to 0.2 ml media to make it up to the final concentration for each drug.
(§5) Each concentration was assayed in duplicate. Cells were exposed to the compounds for 72 h and then processed for CellTiter-Glo® Luminescent Cell Viability Assay (Promega) read out according to manufacturer's Instruction and read on EnVision (Perkin Elmer). GI50 values were calculated using ActivityBase from IDBS.
(§6) A combination index score was calculated by the Chou and Talalay method (CalcuSyn software, Biosoft).

HCT116 = test: Combination antiproliferation with Example 1; format: cell-based; set-up: key to Synergy: ++++ indicates a very strong synergistic effect; +++ a strong synergistic effect; ++ a synergistic effect; settings: agent in combination with Example 1, HCT116, Colon Cancer
Protocol: as §3, §4, §5, §6

T47D = test: Combination antiproliferation with Example 1; format: cell-based; set-up: key to Synergy: ++++ indicates a very strong synergistic effect; +++ a strong synergistic effect; ++ a synergistic effect; settings: agent in combination with Example 1, T47D, Breast Cancer
Protocol: as §3, §4, §5, §6

Jeko-1 = test: Combination antiproliferation with Example 1; format: cell-based; set-up: key to Synergy: ++++ indicates a very strong synergistic effect; +++ a strong synergistic effect; ++ a synergistic effect; settings: agent in combination with Example 1, Jeko-1, Mantle Cell Lymphoma
Protocol: as §3, §4, §5, §6

HT29 = test: Combination antiproliferation with Example 1; format: cell-based; set-up: key to Synergy: ++++ indicates a very strong synergistic effect; +++ a strong synergistic effect; ++ a synergistic effect; settings: agent in combination with Example 1, HT29, Colon Cancer
Protocol: as §2

SKMEL19 = test: Combination antiproliferation with Example 1; format: cell-based; set-up: key to Synergy: ++++ indicates a very strong synergistic effect; +++ a strong synergistic effect; ++ a synergistic effect; settings: agent in combination with Example 1, SKMEL19, Melanoma
Protocol: as §2

U87MG = test: Combination antiproliferation with Example 1; format: cell-based; set-up: key to Synergy: ++++ indicates a very strong synergistic effect; +++ a strong synergistic effect; ++ a synergistic effect; settings: agent in combination with Example 1, U87MG, Glioblastoma
Protocol: as §3, §4, §5, §6

T-47D = test: In vitro potency against breast cancer cell lines (CellTiter Glo); format: cell-based; settings: Homo sapiens, T47D, 72 h; read-out: absolute IC50 T-47D
Protocol: (§7) To prepare the complete medium FBS and appropriate additives were added according to the information sheet provided by the vendor and mixed gently. The cell name and complete medium and passage number marked on the flask were checked, and the culture medium removed and discarded using a vacuum pump. […] 3.0 ml of Trypsin-EDTA solution was added to the flask and the cells observed under an inverted microscope until cell layer is dispersed. 8.0 ml of complete growth medium was added and the cells aspirated by gently pipetting. The cell suspension was transferred to a centrifuge tube and centrifuged at 800-1000 rpm for 3-5 minutes. The supernatant was discarded using a vacuum pump, and an appropriate volume of complete medium added. The cell pellet was suspended by gently pipetting, and the cell numbers counted with Vi-cell XR and the cells adjusted to appropriate density. 100 μL of cell suspension to 96-well opaque-walled clear bottom plates was added according to the planned plate layout and the plates placed in the CO2 incubator overnight.
(§8) c. […] Meanwhile the day 0 plate was measured by Cell TiterGlo as listed below.
(§9) d. Cells were incubated with the compounds for 72 h at 5% CO2, 37° C.
(§10) The CellTiter-Glo buffer was thawed and equilibrated to room temperature prior to use. The lyophilized CellTiter-Glo substrate was equilibrated to room temperature prior to use. The appropriate volume of CellTiter-Glo buffer was transferred into the amber bottle containing CellTiter-Glo substrate to reconstitute the lyophilized enzyme/substrate mixture, thereby forming the CellTiter-Glo reagent. Mixing was carried out by gently vortexing, swirling or by inverting the contents to obtain a homogeneous solution, the CellTiter-Glo substrate going into solution easily in less than one minute.
(§11) The plate and its contents were equilibrated to room temperature for approximately 30 minutes, after which 100 μL of CellTiter-Glo reagent was added to the assay plate by Multidrop Combi instrument and the contents mixed for 10 minutes on an orbital shaker to induce cell lysis. The plate was allowed to incubate at room temperature for 10 minutes to stabilize luminescent signal and the clear bottom pasted with white back seal and the luminescence recorded with Enspire with the settings: Luminescence, measurement time 0.1 ms.

HCC1143 = test: as above; format: cell-based; settings: Homo sapiens, HCC1143, 72 h; read-out: absolute IC50 HCC1143
Protocol: as §7, §8, §9, §10, §11

BT-474 = test: as above; format: cell-based; settings: Homo sapiens, BT-474, 72 h; read-out: absolute IC50 BT-474
Protocol: as §7, §8, §9, §10, §11

KG-1 = test: In vitro potency against leukemia cell lines (CellTiter Glo); format: cell-based; settings: Homo sapiens, 72 hours, read-out: absolute IC50 KG-1
Protocol: as §7, §8, §9, §11
(§12) In all cases, the incubation time was 72 hours and the cell lines were grown as a suspension. The seeding density was […] in a 96 well plate.

OCI-M1 = test: as above; format: cell-based; settings: 72 hours, read-out: absolute IC50 OCI-M1
Protocol: as §7, §8, §9, §11, §12

T2 sequence (P11309 whole entry): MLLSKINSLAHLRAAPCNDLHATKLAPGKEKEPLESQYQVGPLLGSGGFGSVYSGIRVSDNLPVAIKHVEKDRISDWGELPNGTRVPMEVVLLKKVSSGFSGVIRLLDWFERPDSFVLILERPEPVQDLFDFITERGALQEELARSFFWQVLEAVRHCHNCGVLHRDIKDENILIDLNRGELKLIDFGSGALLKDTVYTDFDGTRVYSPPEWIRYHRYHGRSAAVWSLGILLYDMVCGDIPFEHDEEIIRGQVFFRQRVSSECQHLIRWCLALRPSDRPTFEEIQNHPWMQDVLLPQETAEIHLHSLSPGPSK
T3 sequence (Q9P1W9 whole entry): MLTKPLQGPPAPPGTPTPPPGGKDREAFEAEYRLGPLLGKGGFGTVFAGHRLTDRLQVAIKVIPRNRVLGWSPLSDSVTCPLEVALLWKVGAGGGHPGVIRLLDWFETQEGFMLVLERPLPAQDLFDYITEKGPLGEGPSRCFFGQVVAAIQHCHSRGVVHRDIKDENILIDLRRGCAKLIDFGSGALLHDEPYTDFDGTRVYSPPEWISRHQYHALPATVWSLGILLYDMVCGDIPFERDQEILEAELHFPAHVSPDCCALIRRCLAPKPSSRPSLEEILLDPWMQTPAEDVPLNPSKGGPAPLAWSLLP

| Structure (SMILES) | EC50 [1] | IC50 (PIM-3) | IC50 (PIM-1) | IC50 (PIM-2) | C.I. (combination index) (DU145) | Synergy (DU145) | C.I. (combination index) (SKMEL19) | Synergy (SKMEL19) | other results |
| --- | --- | --- | --- | --- | --- | --- | --- | --- | --- |
| CN1CCOc2c1c(N[C@H]1CC[C@@](C)(O)CC1)nn1c(-c3ccc(F)c(C(F)(F)F)c3)nnc21 [Example 2, 4-[3-(4-Fluoro-3-trifluoromethyl-phenyl)-6-methyl-7,8-dihydro-6H-9-oxa-1,2,3a,4,6-pentaaza-cyclopenta[a]naphthalen-5-ylamino]-1-methyl-cyclohexanol] | 7.11 nM | 1 to 5 nM | < 1 nM | 1 to 5 nM | – | – | – | – | – |
| CC1(O)CCC(Nc2nn3c(-c4cccc(OC(F)(F)F)c4)nnc3c3c2CCCO3)CC1 (centres unmarked) [Example 3, 1-Methyl-4-[3-(3-trifluoromethoxy-phenyl)-7,8-dihydro-6H-9-oxa-1,2,3a,4-tetraaza-cyclopenta[a]naphthalen-5-ylamino]-cyclohexanol] | 4.15 nM | 1 to 5 nM | < 1 nM | 5 to 10 nM | – | – | – | – | – |
| CS(=O)(=O)CCNCc1ccc(-c2ccc3ncnc(Nc4ccc(OCc5cccc(F)c5)c(Cl)c4)c3c2)o1 [Lapatinib, lapatinib] | – | – | – | – | 0.52 | ++ | – | – | C.I. (combination index) (A549): 0.47; Synergy (A549): ++; C.I. (combination index) (HCT116): 0.51; Synergy (HCT116): ++; C.I. (combination index) (T47D): 0.27; Synergy (T47D): +++; C.I. (combination index) (Jeko-1): 0.70; Synergy (Jeko-1): ++ |
| O=C(NOC[C@H](O)CO)c1ccc(F)c(F)c1Nc1ccc(I)cc1F [Merdametinib, merdametinib] | – | – | – | – | 0.55 | ++ | 0.038 | ++++ | C.I. (combination index) (HT29): 0.62; Synergy (HT29): ++ |
| CS(=O)(=O)N1CCN(Cc2cc3nc(-c4cccc5[nH]ncc45)nc(N4CCOCC4)c3s2)CC1 [Pictisilib, pictisilib] | – | – | – | – | 0.24 | +++ | 0.54 | ++ | C.I. (combination index) (U87MG): 0.46; Synergy (U87MG): ++ |
| CN[C@@H]1C[C@H]2O[C@@](C)([C@@H]1OC)n1c3ccccc3c3c4c(c5c6ccccc6n2c5c31)C(=O)NC4 [Staurosporine] | – | – | – | – | – | – | – | – | IC50 (T-47D): 219 nM; IC50 (HCC1143): 11 nM; IC50 (BT-474): 76.6 nM; IC50 (KG-1): 23.2 nM; IC50 (OCI-M1): 48.4 nM |
